Among the data in ChEMBL document CHEMBL3286373, “Toward the Development of Bivalent Ligand Probes of Cannabinoid CB1 and Orexin OX1 Receptor Heterodimers” (ACS Med Chem Lett, 2014) are Ke values, retold here.

Assay [1] addresses T1, Cannabinoid CB1 receptor/orexin receptor 1 complex (Homo sapiens) (UniProt P21554+O43613). To be noted: RD-HGA16.
Description: Antagonist activity at CB1-OX1 heterodimer (unknown origin) expressed in RD-HGA16 cells assessed as inhibition of CP55940-induced calcium mobilization by fluorometric imaging plate reader analysis
Assay [2] has as its target Cannabinoid receptor 1 (Homo sapiens) (UniProt P21554). To be noted: RD-HGA16.
Description: Antagonist activity at CB1 receptor (unknown origin) expressed in RD-HGA16 cells assessed as inhibition of CP55940-induced calcium mobilization by fluorometric imaging plate reader analysis
The target of assay [3] is T1, Cannabinoid CB1 receptor/orexin receptor 1 complex (Homo sapiens). To be noted: RD-HGA16. This is another data set of the same source.
Description: Antagonist activity at CB1-OX1 heterodimer (unknown origin) expressed in RD-HGA16 cells assessed as inhibition of orexin A-induced calcium mobilization by fluorometric imaging plate reader analysis
The target in assay [4] is T2, Orexin/Hypocretin receptor type 1 (Homo sapiens) (UniProt O43613).
T2 sequence (whole entry): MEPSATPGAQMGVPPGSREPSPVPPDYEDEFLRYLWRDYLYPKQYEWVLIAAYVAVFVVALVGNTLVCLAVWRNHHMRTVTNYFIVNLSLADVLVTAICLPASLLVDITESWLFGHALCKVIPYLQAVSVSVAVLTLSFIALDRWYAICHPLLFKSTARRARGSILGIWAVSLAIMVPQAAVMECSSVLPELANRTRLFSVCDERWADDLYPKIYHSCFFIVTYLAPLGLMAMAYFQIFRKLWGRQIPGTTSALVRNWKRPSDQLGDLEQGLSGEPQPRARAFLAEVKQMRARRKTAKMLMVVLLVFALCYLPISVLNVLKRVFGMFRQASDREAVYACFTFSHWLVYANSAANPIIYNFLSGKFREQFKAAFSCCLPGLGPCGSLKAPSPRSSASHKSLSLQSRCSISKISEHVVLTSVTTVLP
In words: Antagonist activity at OX1 receptor (unknown origin) expressed in RD-HGA16 cells assessed as inhibition of orexin A-induced calcium mobilization by fluorometric imaging plate reader analysis. It counts as functional, cell-based. (Calcium flux is commonly read through the fluorescence of an indicator in the cells.)

Chain of Cannabinoid receptor 1 (Homo sapiens) (P21554 whole entry): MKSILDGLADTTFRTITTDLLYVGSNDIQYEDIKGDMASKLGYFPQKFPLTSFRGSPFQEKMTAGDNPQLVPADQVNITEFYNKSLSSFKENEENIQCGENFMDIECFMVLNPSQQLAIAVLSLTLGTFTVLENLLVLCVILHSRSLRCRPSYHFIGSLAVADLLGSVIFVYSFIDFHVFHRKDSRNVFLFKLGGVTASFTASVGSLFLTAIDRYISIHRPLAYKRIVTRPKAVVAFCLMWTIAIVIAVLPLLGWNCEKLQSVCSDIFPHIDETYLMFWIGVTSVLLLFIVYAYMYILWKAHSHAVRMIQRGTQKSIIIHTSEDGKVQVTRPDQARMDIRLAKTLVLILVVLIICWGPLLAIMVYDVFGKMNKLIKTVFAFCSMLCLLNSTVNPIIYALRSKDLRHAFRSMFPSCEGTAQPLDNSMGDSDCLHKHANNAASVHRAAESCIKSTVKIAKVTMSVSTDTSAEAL

`COc1cc2c(cc1OC)C(Cc1ccc(OC(=O)CCCCCCN(C)CCCCCCCNC(=O)c3nn(-c4ccc(Cl)cc4Cl)c(-c4ccc(Cl)cc4)c3C)c(OC)c1)N(CC(=O)NCc1ccccc1)CC2` (centres undefined): the Ke is above 10 µM in assay [1], 1800 nM in assay [2], 610 nM in assay [3] and 8460 nM in assay [4].
With `CCCCCCOc1cc2c(cc1OC)CCN(CC(=O)NCc1ccccc1)C2Cc1ccc(OC)c(OC)c1` (centres undefined), the Ke in assay [4] came to 310 nM.
`COc1ccc(CC2c3cc(OC(=O)CCCCCCN(C)CCCCOCCCCOCCCCOCCNC(=O)c4nn(-c5ccc(Cl)cc5Cl)c(-c5ccc(Cl)cc5)c4C)c(OC)cc3CCN2CC(=O)NCc2ccccc2)cc1OC` (centres undefined): the Ke was 4.5 µM in assay [1], 1800 nM in assay [2], 420 nM in assay [3] and 3500 nM in assay [4].
In the case of `CCCCCCCNC(=O)CN1CCc2cc(OC)c(OC)cc2C1Cc1ccc(OC)c(OC)c1` (centres undefined), the Ke in assay [4] was found to be 590 nM.
Still for that read-out and setting: then `CCCCCCOc1ccc(CC2c3cc(OC)c(OC)cc3CCN2CC(=O)NCc2ccccc2)cc1OC` (centres undefined), with 120 nM.
On to `Cc1nc2ccc(NC(=O)Nc3ccnc4cccnc34)cc2o1`, for which the Ke was 0.032 µM in assay [1], above 10000 nM in assay [2], above 10000 nM in assay [3] and 45 nM in assay [4].
As for `COc1ccc(CC2c3cc(OC)c(OC)cc3CCN2CC(=O)NCc2ccccc2)cc1OC` (centres undefined), the Ke in assay [4] amounted to 200 nM.
As for `COc1ccc(CC2c3cc(OC)c(OC)cc3CCN2C(C(=O)NCCCCCCCN(C)CCCCCCCNC(=O)c2nn(-c3ccc(Cl)cc3Cl)c(-c3ccc(Cl)cc3)c2C)c2ccccc2)cc1OC` (centres undefined), the Ke in assay [1] was above 10 µM; in assay [2], 3000 nM; in assay [3] it was 230 nM; in assay [4], 5500 nM.
For the compound `CCCC(=O)Oc1ccc(CC2c3cc(OC)c(OC)cc3CCN2CC(=O)NCc2ccccc2)cc1OC` (centres undefined), in assay [4], the Ke is 43 nM.
Consider `COc1ccc(CC2c3cc(OC(=O)CCCCCCN(C)CCCCCCCNC(=O)c4nn(-c5ccc(Cl)cc5Cl)c(-c5ccc(Cl)cc5)c4C)c(OC)cc3CCN2CC(=O)NCc2ccccc2)cc1OC` (centres undefined), for which the Ke in assay [1] was above 10 µM; in assay [2], 2100 nM; in assay [3] it was 1200 nM; in assay [4] it was 8800 nM.
Turning to `COc1ccc(CC2c3cc(OCCCCCCC(=O)NCCOCCOCCOCCNC(=O)c4nn(-c5ccc(Cl)cc5Cl)c(-c5ccc(Cl)cc5)c4C)c(OC)cc3CCN2CC(=O)NCc2ccccc2)cc1OC` (centres undefined), the Ke in assay [1] is above 10 µM; in assay [2], 8000 nM; in assay [3], 580 nM; in assay [4] it was 8600 nM.
Regarding `CCCC(=O)Oc1cc2c(cc1OC)CCN(CC(=O)NCc1ccccc1)C2Cc1ccc(OC)c(OC)c1` (centres undefined), the Ke in assay [4] amounted to 78 nM.
On to `COc1cc2c(cc1OC)C(Cc1ccc(OC(=O)CCCCCCN(C)CCCCCCCCCCNC(=O)c3nn(-c4ccc(Cl)cc4Cl)c(-c4ccc(Cl)cc4)c3C)c(OC)c1)N(CC(=O)NCc1ccccc1)CC2` (centres undefined), for which the Ke is 5.9 µM in assay [1], 1800 nM in assay [2], 110 nM in assay [3] and above 10000 nM in assay [4].
On to `COc1cc2c(cc1OC)C(Cc1ccc(OC(=O)CCCCCCN(C)CCCCCCCCCCCCNC(=O)c3nn(-c4ccc(Cl)cc4Cl)c(-c4ccc(Cl)cc4)c3C)c(OC)c1)N(CC(=O)NCc1ccccc1)CC2` (centres undefined), for which the Ke in assay [1] is above 10 µM; in assay [2], 1100 nM; in assay [3], 410 nM; in assay [4], above 10000 nM.
As to `CCCCCCCNC(=O)[C@@H](c1ccccc1)N1CCc2cc(OC)c(OC)cc2C1Cc1ccc(OC)c(OC)c1` (some centres undefined), in assay [4], the Ke was found to be 22 nM.
